# Measurements taken from patent publication US11866466B2, “Tumor homing and cell penetrating peptide-immuno-oncology agent complexes and methods of use thereof” (BLAZE BIOSCIENCE, INC., priority 2017, dated 2024).
# {ppp} = triphosphate on the strand's 5' end
# How the values were obtained:
# [1] = tested on: STING; details: from Lioux et al.; cited from earlier work
# [2] = tested on: IFN pathway (JAK/STAT/ISGF3 pathway and/or IRF3 pathway) in SEAP reporter cells; RIG-I; assay: B16-Blue IFN-alpha/beta SEAP reporter cell assay; format: cell-based, murine; details: for luminescence signal (RLU) from activating the IFN pathway: 12 pmol or 120 pmol, 24, 48, or 72 hours, no transfection reagent (FIG. 19); for RLU signal in the presence of transfection reagent: with Lipofectamine transfection reagent (FIG. 22)
# [3] = tested on: A20 lymphoma cells; assay: Intratumoral microinjection in A20 lymphoma tumors, CC3 immunostaining and radial plot analysis; format: in vivo, mouse; details: for CC3 staining (apoptosis) at injection site: 24 hours after administration, complex at 1 μg and 2 μg doses (FIG. 81)
# [4] = tested on: A20 lymphoma cells; assay: Intratumoral microinjection in A20 tumors, IFNb mRNA in situ hybridization (RNAscope); format: in vivo, mouse; details: 4 hours after administration; complex at 1 ug or 2 ug (FIG. 84, FIG. 85)
# [5] = tested on: CT26 colon carcinoma cells; assay: Intratumoral microinjection in CT26 flank tumors, cleaved caspase 3 (CC3) immunostaining; format: in vivo, mouse
# [6] = Tolerability of intraperitoneal peptide-IL-15 agent complexes in CT26 tumor mice; format: in vivo, mouse; details: 1-12 ug in 100 μl, 4 days a week intraperitoneally, 7 doses
# Experimental: This example describes peptide-IL-15 agent complex accumulation in tumors. Peptide-IL-15 agent complexes such as this in example 18 were expressed and purified. Mice were dosed with 0.2 million CT26 cells, which were allowed to grow for 5 days, at which time tumors were palpable. Mice were dosed with 1-12 ug of SEQ ID NO: 1317, SEQ ID NO: 1321, an RLI, or no agent in 100 μl 4 days a week intraperitoneally. […] After 7 doses, the animals were sacrificed and the tumor tissue was harvested and fixed.
# [7] = tested on: Mo7e cells; assay: Mo7e proliferation assay (PrestoBlue); format: cell-based, human; details: 3 days incubation (FIG. 29)
# Experimental: (§1) This example describes in vitro proliferation of cells treated with peptide-IL-15 agent complexes using cytokine dependent CTLL2 (mouse cytotoxic T lymphocyte cell line), Mo7e (human acute megakaryoblastic leukemia cell line) and human primary CD8+ T cells. All assays were performed in the 96 well plate format in clear bottom black walled tissue culture plates. Peptide-I/O complexes comprising SEQ ID NO: 568, peptide-I/O complexes comprising an IL-15 agent, and peptide-I/O complexes comprising a His-tagged RLI control proteins (SEQ ID NO: 1342) were diluted in culture media without cytokine supplement. […]
# CTLL2 and Mo7e cells were maintained as cell cultures in media containing either IL-2 (CTLL2) or IL-3 (Mo7e). Viability and cell concentration were analyzed using a Viacell cell counter. […]
# After the end of the incubation period, PrestoBlue live cell assay reagent (Invitrogen) was added to each well (10 μL per 100 μL well). […] Fluorescence was quantified using an Envision (Perkin Elmer 2104) plate reader. Data was graphed and analyzed in Excel, GraphPad Prism 7, or the AAT Bioquest graphing and EC50 calculator https://www.aatbio.com/tools/ec50-calculator. […]
# After the end of the incubation period, PrestoBlue live cell assay reagent (Invitrogen) was added to each well per manufacture instructions. […] PrestoBlue fluorescence was quantified using an Envision (Perkin Elmer 2104) plate reader.
# [8] = tested on: CD8+ primary human T cells; assay: CD8+ primary human T cell proliferation assay (PrestoBlue); format: cell-based; details: FIG. 30A
# Experimental: as §1
# (§2) CD8+ selected primary human T-cells were received as frozen cells and stored in the LN2 vapor phase until used. […] 15 mL of room temperature 10% FBS RPMI media was added to the cell suspension; the cells were then pelleted, resuspended in 10% FBS media, and counted using the Viacell. […]
# (§3) After the end of the incubation period, PrestoBlue live cell assay reagent (Invitrogen) was added to each well (10 μL per 100 μL well). […] Fluorescence was quantified using an Envision (Perkin Elmer 2104) plate reader. Data was graphed and analyzed in Excel, GraphPad Prism 7, or the AAT Bioquest graphing and EC50 calculator https://www.aatbio.com/tools/ec50-calculator.
# [9] = tested on: PHA induced T cell blasts; assay: PHA induced T cell blast proliferation assay (PrestoBlue); format: cell-based, human; details: FIG. 30B; same CD8+ T cell donor
# Experimental: as §1, §2, §3
molecule,measurement,setting,value
"Nc1ncnc2c1ncn2C1C[C@@H]2OP(=O)(O)OCC3OC(n4cnc5c(=O)[nH]cnc54)[C@H](F)[C@@H]3OP(=O)(O)OCC2O1 (stereo partly shown) [Analog 55, c-(dAMP-2′FdIMP)]","activity relative to 2′,3′-cGAMP",[1],"equivalent in activity to 2′,3′-cGAMP"
"dsRNA: SEQ ID NO: 1424 and SEQ ID NO: 1425 (no terminal phosphates on either strand) complexed together (chain 1 GCAUGCGACCUCUGUUUGA; chain 2 UCAAACAGAGGUCGCAUGC; RNA, backbone and methylation of C not given here; further chemistry not fully specified)",luminescence signal (RLU) from activating the IFN pathway,[2],Very little signal
same,RLU signal in the presence of transfection reagent,[2],much lower signaling
"Nc1ncnc2c1ncn2C1OC2COP(=O)(O)OC3C(COP(=O)(O)OC2C1O)OC(n1cnc2c(=O)[nH]cnc21)C3O (stereo not shown) [Analog 9, 3′,3′c-AIMP]","activity relative to 2′,3′-cGAMP",[1],"equivalent in activity to 2′,3′-cGAMP"
"3′,2′c-AIMP [Analog 23]","activity relative to 2′,3′-cGAMP",[1],"equivalent in activity to 2′,3′-cGAMP"
"Nc1ncnc2c1ncn2C1C[C@@H]2OP(=O)(O)OCC3OC(n4cnc5c(=O)[nH]cnc54)C[C@@H]3OP(=O)(O)OCC2O1 (stereo partly shown) [Analog 51, c-(dAMP-dIMP)]","activity relative to 2′,3′-cGAMP",[1],"equivalent in activity to 2′,3′-cGAMP"
"Nc1ncnc2c1ncn2C1OC2COP(=O)(O)OC3CC(n4cnc5c(=O)[nH]cnc54)OC3COP(=O)(O)OC2C1F (stereo not shown) [Analog 54, c-(2′FdAMP-dIMP)]","activity relative to 2′,3′-cGAMP",[1],"equivalent in activity to 2′,3′-cGAMP"
"Nc1ncnc2c1ncn2C1OC2COP(=O)(O)O[C@@H]3C(COP(=O)(O)O[C@@H]1[C@@H]2O)OC(n1cnc2c(=O)[nH]cnc21)[C@@H]3O (stereo partly shown) [Analog 10, 2′,3′c-AIMP]","activity relative to 2′,3′-cGAMP",[1],"equivalent in activity to 2′,3′-cGAMP"
Cc1ccc2c(=O)c3cccc(CC(=O)O)c3oc2c1C [DMXAA],CC3 staining (apoptosis) at injection site,[3],do not show similarly strong induction of apoptosis
"Nc1ncnc2c1ncn2C1OC2COP(=O)(S)OC3CC(n4cnc5c(=O)[nH]cnc54)OC3COP(=O)(S)OC2C1F (stereo not shown) [Analog 56, c-[2′FdAM(PS)-dIM(PS)]]","activity relative to 2′,3′-cGAMP",[1],"more potent than 2′,3′-cGAMP"
cAIM(PS)2 [Analog 13],"activity relative to 2′,3′-cGAMP",[1],"more potent than 2′,3′-cGAMP"
"5′ppp hpRNA: I/O comprising a dsRNA SEQ ID NO: 1371 with a 5′ppp, which forms a hairpin structure (GCAUGCGACCUCUGUUUGAUCAAACAGAGGUCGCAUGC; RNA, 5' {ppp}, backbone and methylation of C not given here; hairpin RNA)",IFNb mRNA staining at injection site,[4],significant IFNb mRNA staining
same,luminescence signal (RLUs) with transfection reagent,"[2]; 16.2 pmole, 24 hours, with Lipofectamine (FIG. 80)",High signaling
same,fraction of cells positive for CC3 staining versus distance from injection site (radial plot),"[3]; 24 hour timepoint, 7-8 tumors per test article, complex at 1 μg and 2 μg (FIG. 82)",very little increase in CC3 positive cells
same,CC3 staining (apoptosis) at injection site,[3],do not show similarly strong induction of apoptosis
"Nc1ncnc2c1ncn2C1OC2COP(=O)(O)O[C@@H]3C(COP(=O)(O)O[C@H]2[C@H]1F)OC(n1cnc2c(=O)[nH]cnc21)[C@@H]3F (stereo partly shown) [Analog 52, c-(2′FdAMP-2′FdIMP)]","activity relative to 2′,3′-cGAMP",[1],"more potent than 2′,3′-cGAMP"
c-[2′FdAMP(S)-2′FdIMP(S)] [Analog 53],"activity relative to 2′,3′-cGAMP",[1],"more potent than 2′,3′-cGAMP"
"5′ppp dsRNA: SEQ ID NO: 1424 (with triphosphate on the 5′ end) and SEQ ID NO: 1425 (no terminal phosphates) complexed together (chain 1 GCAUGCGACCUCUGUUUGA; chain 2 UCAAACAGAGGUCGCAUGC; chain 1: RNA, 5' {ppp}, backbone and methylation of C not given here; chain 2: RNA, backbone and methylation of C not given here)",luminescence signal (RLU) from activating the IFN pathway,[2],Very little signal
same,RLU signal in the presence of transfection reagent,[2],high signaling
CCN(CC)CCCC(C)Nc1ccnc2cc(Cl)ccc12 (stereo not shown) [chloroquine],CC3 staining (apoptosis) at injection site,[5]; 4 hours post-treatment (FIG. 16),did not have a significant region of CC3 staining
same,CC3 staining (apoptosis) at injection site,"[5]; 24 h, other animals tested",One animal showed CC3 staining
"SEQ ID NO: 1342: His-tagged RLI protein comprising SEQ ID NO: 1169, SEQ ID NO: 1176 (IL-15Ra sushi+) and SEQ ID NO: 1177 (IL-15)",tolerability of treatments,[6],well tolerated
same,"cytokine activity, proliferation",[7],stimulate Mo7e cells
same,"cytokine activity, proliferation",[8],stimulate human CD8+ T cells
same,"cytokine activity, proliferation",[9],stimulate human CD8+ T cells
